{"source": "patent US8119684B2", "about": "“Thiophene derivatives for up-regulating HLA-DM activity” (Dana-Farber Cancer Institute, Inc., priority 2003, dated 2012)", "key": {"[1]": {"target": "T1, HLA-DM catalyzed peptide exchange on HLA-DR2 (Homo sapiens, UniProt P28067+P28068)", "T1 construct": "made in house; host or cells: HLA-DM: S2 insect cells; HLA-DR2b: COS cells; peptides synthesized by New England Peptide, Inc", "T1 sequence (P28067 27-233 limits assumed)": "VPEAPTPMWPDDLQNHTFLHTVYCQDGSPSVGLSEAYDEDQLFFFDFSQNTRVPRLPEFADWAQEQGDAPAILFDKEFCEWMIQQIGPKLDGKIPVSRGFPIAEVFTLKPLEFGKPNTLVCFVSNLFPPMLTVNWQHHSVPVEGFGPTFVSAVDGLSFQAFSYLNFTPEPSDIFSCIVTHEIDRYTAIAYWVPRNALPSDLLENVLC", "T1 sequence (P28068 19-218 limits assumed)": "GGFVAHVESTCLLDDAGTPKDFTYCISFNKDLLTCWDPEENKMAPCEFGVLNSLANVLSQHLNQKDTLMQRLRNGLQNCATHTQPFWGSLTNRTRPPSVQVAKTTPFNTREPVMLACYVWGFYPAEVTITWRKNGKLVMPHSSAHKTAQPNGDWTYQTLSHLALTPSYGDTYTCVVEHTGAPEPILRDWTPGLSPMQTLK", "test": "Dissociation assay: MBP peptide dissociating from HLA-DR2 in the presence of HLA-DM and 100-fold excess unlabeled MBP", "format": "biochemical", "conditions": "FIG. 5, F15 versus DMSO", "description": "FIG. 5b illustrates graphically a dissociation assay of MBP peptide dissociating from HLA-DR2 in the presence of HLA-DM and 100-fold excess unlabeled MBP in the peptide for both F15 and DMSO;\nFIGS. 5a and 5b graphically illustrate the dose reponse curve for compound F15 for disassociation (5a) and association (5b) assays."}, "[2]": {"target": "T1, HLA-DM catalyzed peptide exchange on HLA-DR2", "test": "Antigen Presentation Screen: fluorescence polarization association assay of Alexa 488-labeled MBP 85-99 binding to HLA-DR2b/CLIP in the presence of HLA-DM", "format": "biochemical", "description": "In one detailed aspect of the invention, an assay is described below for detecting and monitoring HLA-DM catalyzed peptide exchange. In particular, the kinetics of peptide exchange can be evaluated and the effects on such kinetics of test compounds can be evaluated. A labeled peptide, such as a fluorescently labled MBP peptide, can be visualized binding to isolated HLA-DR2 in the presence of HLA-DM by Fluorescence Polarization (FP). FP can detect the motion of a fluorescently labeled peptide such as MBP (85-99). The FP detected increases when a fluorescently labeled peptide binds to a receptor. This assay may allow peptide binding to HLA-DR2 to be monitored in real time without interrupting the reaction. In this manner, a number of readings can be made at different times during a single assay. This can provide information about the rate of transfer of a peptide, leading to the identification of compounds that increase or decrease the rate of peptide exchange. It may also lead to the identification of compounds that decrease the rate of peptide exchange by directly preventing peptide binding to MHC class II.\nIn the assay described below (Antigen Presentation Screen), Fluorescence Polarization (FP) can be used to monitor the kinetics, including the exchange rate, of exchanging CLIP for myelin basic protein (MBP) peptide on isolated HLA-DR2. MBP peptide consisting of amino acids 85-99 of Myelin Basic Protein is labeled with the fluorescent dye Alexa 488 at the P5 position. The CLIP may be unlabled. A system of isolated HLA-DR2 containing CLIP and labeled MBP peptide are incubated in the presence of HLA-DM. The system may be exposed to test compounds and FP can be used to measure the rate of exchange of CLIP for MBP for each test compound, including a control. A change in fluorescence polarization is monitored and/or recorded using a 485 nm excitation filter and a 530 nm emission filter in a LJL Analyst. Fluorescence readings taken at time intervals can indicate how fast CLIP is being exchanged for MBP in the presence of HLA-DM.\nProteins: HLA-DR2b containing the CLIP peptide in PBS buffer synthesized by COS cells with covalently linked CLIP peptide. The linker is cut with the addition of 25 U/ml of Thrombin (Novagen 69671) (2 hr incubation at 37° C.) and blocked with Pefablock (Roche 1429-868).\nHLA-DM in PBS buffer, synthesized in S2 insect cells. Purified on a anti-FLAG column with a high pH elution (50 mM CAPS pH 11.5)\nPeptides: MBP 85-99 (Alexa 488 at P5 position) in H2O\n• 1. Add 0.4 μl of library compound in 100% DMSO to wells (see FIG. 7) containing HLA-DR2b. (Library compounds at 50 mM). Also add 0.4 μl DMSO to all control wells during this step. This step can be carried out days before screening commences. • 2. Add 35 μl of 50 mM Citrate pH5.2/150 mM NaCl buffer to wells M23, […], N23 and N24. Add 40 μl of 50 mM Citrate pH 5.2/150 mM NaCl buffer to wells O23, O24, P23 and P24. Add 35 μl of 114 nM HLA-DR2b in 50 mM Citrate pH 5.2/150 mM NaCl buffer to appropriate wells in 384 well plate as shown below in FIG. 9. Make 114 nM HLA-DR2b solution fresh and keep cold until just before addition of library compounds • 5. By hand add 1 μl of MBP 85-99 (unlabeled) titration to control wells as described below in FIG. 10. • 6. Mix HLA-DR2b and compound by shaking with plate shaker for 1 minute. • 7. Incubate HLA-DR2b and compound for 30 minutes at room temperature. • 8. By hand add 5 μl of 80 nM MBP 85-99 (Alexa 488 at P5 position) to control wells (FIG. 11) as described below while plate is incubating at room temperature. • 9. During 30 minute incubation read plates for Fluorescent Intensity using the Analyst (Molecular Devices) Parameters described below. This step is optional if Fluorescent Intensity references have already been read for the compounds being screened. • 10. Add 5 p. 1 of MBP/DM mix (80 nM MBP 85-99 (Alexa 488 at P5 position)/800 nM HLA-DM in 50 mM Citrate pH 5.2/150 mM NaCl buffer) to begin reaction. […]"}}, "data": [{"compound": "N#CC1=C(SC2CCCCC2)CC(C(=O)O)=C1c1ccc(Cl)cc1", "note": "[Compound F15]", "values": [{"measurement": "dose response curve, dissociation assay", "setting": "[1]", "result": "substantial effect even at very low concentrations"}, {"measurement": "increase in binding (FP) compared to the control", "setting": "[2]; 30 minute sampling time, FIG. 3", "result": "about 25%"}, {"measurement": "acceleration of peptide exchange over the control (factor)", "setting": "[2]; F15 at 10 uM, FIG. 4", "result": 3}, {"measurement": "Vmax (initial velocity of MBP/HLA-DR2 binding)", "setting": "[2]; F15 at 10 uM, increasing levels of DR2b, HLA-DM present, FIG. 4, control Vmax 0.02521", "result": 0.07611}, {"measurement": "dose response curve, association assay", "setting": "[2]; FIG. 5, F15 versus DMSO", "result": "substantial effect even at very low concentrations"}, {"measurement": "concentration at which a significant increase in the rate of peptide exchange is seen (as low as)", "setting": "[2]; association assay, FIG. 3, various concentrations of F15", "result": 1, "unit": "µM"}, {"measurement": "total amount of peptide exchange compared to the control", "setting": "[2]; over a 6 hour period, FIG. 3", "result": "about equal"}]}]}
